Test [1] has as its target T1, pseudo-kinase domain (JH2) of human V617F mutant JAK2 (Homo sapiens, UniProt O60674, F794H/V617F/W659A/W777A).
T1 construct: pseudo-kinase domain (JH2, amino-acids 536-812 with 3 surface mutations W659A, W777A, F794H); His (C); purchased BPS Bioscience 79498; host or cells: baculovirus expression system
The test can be described thus: JAK2 LanthaScreen JH2-V617F Binding Assay. The settings on record: 50 nM Fluorescent JAK2-JH2 Tracer, 1 hour at 25° C. The method, then: (§1) Example C. JAK2 LanthaScreen JH2-V617F Binding Assay JAK2 JH2-V617F binding assay utilizes pseudo-kinase domain (JH2, amino-acids 536-812 with 3 surface mutations […]) of human V617F mutant JAK2 expressed as C-terminal His-Avi-tagged, biotinylated protein in a baculovirus expression system (BPS Bioscience, Catalog #79498). The assay was conducted in black 384-well polystyrene plates in a final reaction volume of 20 μL. JAK2 JH2-V617F (0.26 nM) was incubated with compounds (100 nL serially diluted in DMSO) in the presence of 50 nM Fluorescent JAK2-JH2 Tracer (MedChem Express Catalog #HY-102055) and 0.25 nM Streptavidin-Tb cryptate (Cisbio Part #610SATLB) in assay buffer (50 mM Tris, pH=7.5, 10 mM MgCl2, 0.01% Brij-35, 0.1% BSA, 1 mM EGTA, 5% Glycerol and 5 mM DTT). Non-specific binding was accessed in the presence of 2 mM ATP. After incubation for 1 hour at 25° C., LanthaScreen signals were read on a PHERAstar FS plate reader (BMG LABTECH). Data was analyzed with IDBS XLfit and GraphPad Prism 5.0 software using a four parameter dose response curve to determine IC50 for each compound.

The target in test [2] is T2, pseudo-kinase domain (JH2) of human Wild Type JAK2 (Homo sapiens, UniProt O60674, F794H/W659A/W777A).
T2 construct: pseudo-kinase domain (JH2, amino-acids 536-812 with 3 surface mutations W659A, W777A, F794H); His (C); purchased BPS Bioscience 79463; host or cells: baculovirus expression system
T2 sequence (O60674 536-812 W659A/W777A/F794H): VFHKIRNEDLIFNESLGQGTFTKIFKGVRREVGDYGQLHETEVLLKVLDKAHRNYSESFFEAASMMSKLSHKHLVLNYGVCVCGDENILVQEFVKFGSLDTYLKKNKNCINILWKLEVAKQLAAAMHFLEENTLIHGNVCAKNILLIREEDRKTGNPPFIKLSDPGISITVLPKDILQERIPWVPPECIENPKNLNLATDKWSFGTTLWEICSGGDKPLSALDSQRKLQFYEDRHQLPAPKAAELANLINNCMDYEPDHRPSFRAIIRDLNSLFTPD
The test can be described thus: JAK2 LanthaScreen JH2-WT Binding Assay. The settings on record: 50 nM Fluorescent JAK2-JH2 Tracer, 1 hour at 25° C. On the procedure: as §1, with “Example B.” for “Example C.”, “LanthaScreen JH2-WT” for “LanthaScreen JH2-V617F”, “JAK2 JH2-WT” for “JAK2 JH2-V617F”, “human Wild Type” for “human V617F mutant”, “Catalog #79463).” for “Catalog #79498).”, “JAK2 JH2-WT (0.145” for “JAK2 JH2-V617F (0.26”

For test [3], the target named is T3, catalytic domain (JH1) of human JAK2 (Homo sapiens, UniProt O60674).
T3 construct: catalytic domain (JH1, amino acids 826-1132) of human JAK2; FLAG (N); purchased Carna Biosciences 08-445-20N; host or cells: baculovirus expression system
T3 sequence (O60674 826-1132): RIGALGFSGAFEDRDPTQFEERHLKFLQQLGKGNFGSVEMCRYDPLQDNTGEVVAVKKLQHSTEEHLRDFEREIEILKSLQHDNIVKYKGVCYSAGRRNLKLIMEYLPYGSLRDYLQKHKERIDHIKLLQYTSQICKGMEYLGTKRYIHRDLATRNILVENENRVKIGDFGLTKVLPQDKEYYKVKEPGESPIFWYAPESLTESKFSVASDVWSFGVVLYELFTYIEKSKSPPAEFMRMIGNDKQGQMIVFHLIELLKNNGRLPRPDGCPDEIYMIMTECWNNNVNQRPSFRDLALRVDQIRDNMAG
The test can be described thus: JAK2 LanthaScreen JH1 Binding Assay. The settings on record: 50 nM Fluorescent JAK2-JH1 Tracer, 2 hours at 25° C. The method, then:
Example A. JAK2 LanthaScreen […] Binding Assay JAK2 JH1 binding assay utilizes catalytic domain (JH1, amino acids 826-1132) of human JAK2 expressed as N-terminal FLAG-tagged, biotinylated protein in a baculovirus expression system (Carna Biosciences, Product #08-445-20N). The assay was conducted in black 384-well polystyrene plates in a final reaction volume of 20 μL. JAK2 JH1 (1.5 nM) was incubated with compounds (100 nL serially diluted in DMSO) in the presence of 50 nM Fluorescent JAK2-JH1 Tracer and 0.5 nM Streptavidin-Tb cryptate (Cisbio Part #610SATLB) in assay buffer (50 mM Tris, pH=7.5, 10 mM MgCl2, 0.01% Brij-35, 0.1% BSA, 1 mM EGTA, 5% Glycerol and 5 mM DTT). Non-specific binding was accessed in the presence of 2 mM ATP. After incubation for 2 hours at 25° C., LanthaScreen signals were read on a PHERAstar FS plate reader (BMG LABTECH). Data was analyzed with IDBS XLfit and GraphPad Prism 5.0 software using a four parameter dose response curve to determine IC50 for each compound.
A general note: Time-resolved FRET reads energy transfer from a long-lived donor to a nearby acceptor.

Usually IC50 stands for the midpoint of a concentration-inhibition curve. A low value points to greater potency in that assay.

T1 sequence (O60674 536-812 V617F/W659A/W777A/F794H): as the sequence (O60674 536-812 W659A/W777A/F794H) above, with V82F counted along it

For the compound “4-(2-Amino-5- (2,3-difluorobenzofuran-6- yl)-4-oxo-4,7-dihydro-3H- pyrrolo[2,3-d]pyrimidin-6- yl)-N,N-dimethylbenzene sulfonamide [Example 26]”, the results for the IC50 in test [1], in test [2] and in test [3] were 500 to 1000 nM, 500 to 1000 nM and 1000 to 2500 nM, respectively.

Take `Nc1nc2[nH]c(-c3ccccc3)c(-c3ccccc3OC(F)F)c2c(=O)[nH]1` [Example 1, 2-Amino-5-(2-(difluoromethoxy)phenyl)-6-phenyl-3,7-dihydro-4H-pyrrolo[2,3-d]pyrimidin-4-one]: the IC50 in test [1], in test [2] and in test [3] was more than 2500 nM each time.

Consider `Cc1cccc(-c2c(-c3ccc(S(=O)(=O)N(C)C)cc3)[nH]c3nc(N)[nH]c(=O)c23)c1` [Example 2, 4-(2-Amino-4-oxo-5-(3-tolyl)-4,7-dihydro-3H-pyrrolo[2,3-d]pyrimidin-6-yl)-N,N-dimethylbenzenesulfonamide], for which the results for the IC50 in test [1], in test [2] and in test [3] were 500 to 1000 nM, 500 to 1000 nM and 1000 to 2500 nM, respectively.

For `CN(C)S(=O)(=O)c1ccc(-c2[nH]c3nc(N)[nH]c(=O)c3c2-c2cccc3ccoc23)cc1` [Example 3, 4-(2-Amino-5-(benzofuran-7-yl)-4-oxo-4,7-dihydro-3H-pyrrolo[2,3-d]pyrimidin-6-yl)-N,N-dimethylbenzenesulfonamide], the IC50 in test [1] was 100 to 500 nM; in test [2], 100 to 500 nM; in test [3] it was more than 2500 nM.

Regarding `CN(C)S(=O)(=O)c1ccc(-c2[nH]c3nc(N)[nH]c(=O)c3c2-c2cccc(CO)c2)cc1` [Example 4, 4-(2-Amino-5-(3-(hydroxymethyl)phenyl)-4-oxo-4,7-dihydro-3H-pyrrolo [2,3-d]pyrimidin-6-yl)-N,N-dimethyl-benzene sulfonamide], the figures for the IC50 in test [1], in test [2] and in test [3] were 500 to 1000 nM, 500 to 1000 nM and 1000 to 2500 nM, respectively.

In the case of `CN(C)S(=O)(=O)c1ccc(-c2[nH]c3nc(N)[nH]c(=O)c3c2-c2ccccc2Cl)cc1` [Example 5, 4-(2-Amino-5-(2-chlorophenyl)-4-oxo-4,7-dihydro-3H-pyrrolo[2,3-d]pyrimidin-6-yl)-N,N-dimethylbenzene sulfonamide], the IC50 in test [1] is 1000 to 2500 nM; in test [2], 1000 to 2500 nM; in test [3], more than 2500 nM.

Take `CC(C)c1cccc(-c2c(-c3ccc(S(=O)(=O)N(C)C)cc3)[nH]c3nc(N)[nH]c(=O)c23)c1` [Example 6, 4-(2-Amino-5-(3-isopropylphenyl)-4-oxo-4,7-dihydro-3H-pyrrolo [2,3-d]pyrimidin-6-yl)-N,N-dimethylbenzene sulfonamide]: the IC50 in test [1], in test [2] and in test [3] was more than 2500 nM throughout.

As for `CN(C)S(=O)(=O)c1ccc(-c2[nH]c3nc(N)[nH]c(=O)c3c2-c2cccc3c2OCCO3)cc1` [Example 7, 4-(2-Amino-5-(2,3-dihydrobenzo[b][1,4]dioxin-5-yl)-4-oxo-4,7-dihydro-3H-pyrrolo [2,3-d]pyrimidin-6-yl)-N,N-dimethylbenzene sulfonamide], the concentration for half-maximal inhibition (IC50) in test [1] was 500 to 1000 nM; in test [2], 500 to 1000 nM; in test [3], more than 2500 nM.

Take `CN1CCC(c2ccc(-c3c(-c4ccc(S(=O)(=O)N(C)C)cc4)[nH]c4nc(N)[nH]c(=O)c34)cc2)CC1` [Example 8, 4-(2-Amino-5-(4-(1-methylpiperidin-4-yl)phenyl)-4-oxo-4,7-dihydro-3H-pyrrolo[2,3-d]pyrimidin-6-yl)-N,N-dimethylbenzene sulfonamide]: the IC50 in test [1] is 1000 to 2500 nM; in test [2], 1000 to 2500 nM; in test [3], more than 2500 nM.

With `CN(C)S(=O)(=O)c1ccc(-c2[nH]c3nc(N)[nH]c(=O)c3c2-c2ccc(C(F)F)cc2)cc1` [Example 9, 4-(2-Amino-5-(4-(difluoromethyl)phenyl)-4-oxo-4,7-dihydro-3H-pyrrolo [2,3-d]pyrimidin-6-yl)-N,N-dimethylbenzene sulfonamide], the figures for the IC50 in test [1], in test [2] and in test [3] were 500 to 1000 nM, 500 to 1000 nM and 1000 to 2500 nM, respectively.

As to `CN(C)S(=O)(=O)c1ccc(-c2[nH]c3nc(N)[nH]c(=O)c3c2-c2cccc3c2OCCC3)cc1` [Example 10, 4-(2-Amino-5-(chroman-8-yl)-4-oxo-4,7-dihydro-3H-pyrrolo[2,3-d]pyrimidin-6-yl)-N,N-dimethylbenzene sulfonamide], the IC50 in test [1] is 500 to 1000 nM; in test [2], 500 to 1000 nM; in test [3], more than 2500 nM.

As for `CNC(=O)c1ccc(-c2c(-c3ccc(S(=O)(=O)N(C)C)cc3)[nH]c3nc(N)[nH]c(=O)c23)cc1` [Example 11, 4-(2-Amino-6-(4-(N,N-dimethyl-sulfamoyl)phenyl)-4-oxo-4,7-dihydro-3H-pyrrolo[2,3-d]pyrimidin-5-yl)-N-methylbenzamide], the IC50 fell in the range of 100 to 500 nM in test [1], 100 to 500 nM in test [2] and 1000 to 2500 nM in test [3].

For the compound `CN(C)S(=O)(=O)c1ccc(-c2[nH]c3nc(N)[nH]c(=O)c3c2-c2cccc3c2OC(F)(F)O3)cc1` [Example 12, 4-(2-Amino-5-(2,2-difluorobenzo[d] [1,3]dioxol-4-yl)-4-oxo-4,7-dihydro-3H-pyrrolo[2,3-d]pyrimidin-6-yl)-N,N-dimethylbenzene sulfonamide], the IC50 in test [1] was more than 2500 nM; in test [2], more than 2500 nM; in test [3] it was 1000 to 2500 nM.

On to `CN(C)S(=O)(=O)c1ccc(-c2[nH]c3nc(N)[nH]c(=O)c3c2-c2ccc(S(C)(=O)=O)cc2)cc1` [Example 13, 4-(2-Amino-5-(4-(methylsulfonyl)phenyl)-4-oxo-4,7-dihydro-3H-pyrrolo[2,3-d]pyrimidin-6-yl)-N,N-dimethylbenzene sulfonamide], for which the IC50 fell in the range of 100 to 500 nM in test [1], 100 to 500 nM in test [2] and 1000 to 2500 nM in test [3].

On to `CN(C)S(=O)(=O)c1ccc(-c2[nH]c3nc(N)[nH]c(=O)c3c2-c2cccc(C(N)=O)c2)cc1` [Example 14, 3-(2-Amino-6-(4-(N,N-dimethylsulfamoyl)phenyl)-4-oxo-4,7-dihydro-3H-pyrrolo [2,3-d]pyrimidin-5-yl)benzamide], for which the IC50 in test [1], in test [2] and in test [3] was 1000 to 2500 nM in each case.

Regarding `CN(C)S(=O)(=O)c1ccc(-c2[nH]c3nc(N)[nH]c(=O)c3c2-c2ccccc2CC#N)cc1` [Example 15, 4-(2-Amino-5-(2-(cyanomethyl)phenyl)-4-oxo-4,7-dihydro-3H-pyrrolo[2,3-d]pyrimidin-6-yl)-N,N-dimethylbenzene sulfonamide], the IC50 in test [1], in test [2] and in test [3] was more than 2500 nM each time.

Take `CN(C)S(=O)(=O)c1ccc(-c2[nH]c3nc(N)[nH]c(=O)c3c2-c2cccc3c2cnn3C)cc1` [Example 16, 4-(2-Amino-5-(1-methyl-1H-indazol-4-yl)-4-oxo-4,7-dihydro-3H-pyrrolo[2,3-d]pyrimidin-6-yl)-N,N-dimethylbenzene sulfonamide]: the IC50 in test [1], in test [2] and in test [3] was more than 2500 nM in each case.
